Measured values published in ChEMBL document CHEMBL1201862, “PubChem BioAssay data set” (2004).
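Protocol summary: plate cells (96-well), add compound at 5 concentrations, incubate 48 h, interpolate endpoints linearly. The concentration for 50% growth inhibition is given as GI50.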 The source made the active and inactive calls. No stated cut-off is given here; in the data, active = GI50 up to about 1.1 µM and inactive = higher.

Assays:
Assay in all cases: growth of human tumour cells (NCI), 48 h
SK-OV-3 = system: SK-OV-3
OVCAR-5 = system: OVCAR-5
COLO 205 = system: COLO 205
RPMI-8226 = system: RPMI-8226
MOLT-4 = system: MOLT-4
DLD-1 = system: DLD-1
CAKI-1 = system: CAKI-1
SNB-19 = system: SNB-19
SF-268 = system: SF-268
IGROV-1 = system: IGROV-1
U-251 = system: U-251
786-0 = system: 786-0
A549 = system: A549
RXF 631 = system: RXF 631
SF-295 = system: SF-295
DMS-114 = system: DMS-114
NCI-H522 = system: NCI-H522
HT-29 = system: HT-29
NCI-H460 = system: NCI-H460
K562 = system: K562
UACC-62 = system: UACC-62
SK-MEL-2 = system: SK-MEL-2
UO-31 = system: UO-31
TK-10 = system: TK-10
OVCAR-4 = system: OVCAR-4
HCT-15 = system: HCT-15
KM12 = system: KM12
XF498 = system: XF498
NCI-H226 = system: NCI-H226
DMS-273 = system: DMS-273
NCI-H23 = system: NCI-H23
A498 = system: A498
CCRF-CEM = system: CCRF-CEM
SF-539 = system: SF-539
OVCAR-8 = system: OVCAR-8
HCC 2998 = system: HCC 2998
OVCAR-3 = system: OVCAR-3
SK-MEL-5 = system: SK-MEL-5
M19-MEL = system: M19-MEL
SNB-75 = system: SNB-75
SN12C = system: SN12C
ACHN = system: ACHN
SK-MEL-28 = system: SK-MEL-28
SW-620 = system: SW-620
M14 = system: M14
Malme-3M = system: Malme-3M
HOP-18 = system: HOP-18
LXFL 529 = system: LXFL 529
EKVX = system: EKVX
UACC-257 = system: UACC-257
HOP-62 = system: HOP-62
LOX IMVI = system: LOX IMVI
HL-60 = system: HL-60
KM-20L2 = system: KM-20L2
SNB-78 = system: SNB-78
HOP-92 = system: HOP-92
SR = system: SR

With `COc1ccc(-c2c(N)[n+]([O-])c3cc(C)c(C)cc3[n+]2[O-])cc1OC` the GI50 (SK-OV-3) was > 100 µM (inactive), the GI50 (OVCAR-5) was > 100 µM (inactive) and the GI50 (COLO 205) was 22.3 µM (inactive). The GI50 (RPMI-8226) was > 100 µM (inactive), the GI50 (MOLT-4) was 78.3 µM (inactive) and the GI50 (DLD-1) was 85.7 µM (inactive). The GI50 (CAKI-1) was 37.8 µM (inactive), the GI50 (SNB-19) was 91.2 µM (inactive) and the GI50 (SF-268) was 43.8 µM (inactive). The GI50 (IGROV-1) was > 100 µM (inactive), the GI50 (U-251) was 67.3 µM (inactive) and the GI50 (786-0) was > 100 µM (inactive). For the same compound, the GI50 (A549) was > 100 µM (inactive), the GI50 (RXF 631) was 20.4 µM (inactive) and the GI50 (SF-295) was > 100 µM (inactive). The GI50 (DMS-114) was 25.5 µM (inactive), the GI50 (NCI-H522) was 17.5 µM (inactive) and the GI50 (HT-29) was 73.1 µM (inactive). The GI50 (NCI-H460) was > 100 µM (inactive), the GI50 (K562) was 69.7 µM (inactive) and the GI50 (UACC-62) was 41.4 µM (inactive). The GI50 (SK-MEL-2) was 66.8 µM (inactive), the GI50 (UO-31) was 54 µM (inactive) and the GI50 (TK-10) was > 100 µM (inactive). The GI50 (OVCAR-4) was > 100 µM (inactive), the GI50 (HCT-15) was 48.6 µM and the GI50 (KM12) was > 100 µM (inactive). The GI50 (XF498) was > 100 µM (inactive), the GI50 (NCI-H226) was > 100 µM (inactive) and the GI50 (DMS-273) was 99.3 µM (inactive). For the same compound, the GI50 (NCI-H23) was 34 µM (inactive), the GI50 (A498) was > 100 µM (inactive) and the GI50 (CCRF-CEM) was 78 µM (inactive). For the same compound, the GI50 (SF-539) was 33.9 µM (inactive), the GI50 (OVCAR-8) was > 100 µM (inactive) and the GI50 (HCC 2998) was > 100 µM (inactive). The GI50 (OVCAR-3) was > 100 µM (inactive), the GI50 (SK-MEL-5) was 30.9 µM (inactive) and the GI50 (M19-MEL) was 72.3 µM (inactive). For the same compound, the GI50 (SNB-75) was 36.4 µM (inactive), the GI50 (SN12C) was > 100 µM (inactive) and the GI50 (ACHN) was > 100 µM (inactive). The GI50 (SK-MEL-28) was 38.5 µM (inactive), the GI50 (SW-620) was 74.8 µM (inactive) and the GI50 (M14) was 55.6 µM (inactive). The GI50 (Malme-3M) was > 100 µM (inactive), the GI50 (HOP-18) was 28.8 µM (inactive) and the GI50 (LXFL 529) was 58.5 µM (inactive). The GI50 (EKVX) was > 100 µM (inactive), the GI50 (UACC-257) was 41.5 µM (inactive) and the GI50 (HOP-62) was > 100 µM (inactive). For the same compound, the GI50 (LOX IMVI) was > 100 µM (inactive), the GI50 (HL-60) was 46.3 µM (inactive) and the GI50 (KM-20L2) was 54.3 µM (inactive). The GI50 (SNB-78) was > 100 µM (inactive).
With `COc1ccc2ccc3c(c2c1)CN1CCc2cc(OC)c(OC)cc2C1C3` (stereo not drawn) the GI50 (HOP-92) was > 100 µM (inactive), the GI50 (SK-OV-3) was > 100 µM (inactive) and the GI50 (OVCAR-5) was > 100 µM (inactive). For the same compound, the GI50 (COLO 205) was > 100 µM (inactive), the GI50 (RPMI-8226) was > 100 µM (inactive) and the GI50 (MOLT-4) was > 100 µM (inactive). The GI50 (DLD-1) was > 100 µM (inactive), the GI50 (CAKI-1) was > 100 µM (inactive) and the GI50 (SNB-19) was > 100 µM (inactive). For the same compound, the GI50 (IGROV-1) was > 100 µM (inactive), the GI50 (U-251) was > 100 µM (inactive) and the GI50 (786-0) was > 100 µM (inactive). The GI50 (RXF 631) was > 100 µM (inactive), the GI50 (SF-295) was > 100 µM (inactive) and the GI50 (DMS-114) was > 100 µM (inactive). The GI50 (NCI-H522) was > 100 µM (inactive), the GI50 (HT-29) was > 100 µM (inactive) and the GI50 (NCI-H460) was > 100 µM (inactive). For the same compound, the GI50 (K562) was > 100 µM (inactive), the GI50 (UACC-62) was > 100 µM (inactive) and the GI50 (SK-MEL-2) was > 100 µM (inactive). For the same compound, the GI50 (UO-31) was > 100 µM (inactive), the GI50 (TK-10) was > 100 µM (inactive) and the GI50 (OVCAR-4) was > 100 µM (inactive). The GI50 (HCT-15) was greater than 100 µM, the GI50 (KM12) was > 100 µM (inactive) and the GI50 (XF498) was 60.3 µM (inactive). The GI50 (NCI-H226) was > 100 µM (inactive), the GI50 (DMS-273) was > 100 µM (inactive) and the GI50 (NCI-H23) was > 100 µM (inactive). The GI50 (CCRF-CEM) was > 100 µM (inactive), the GI50 (SF-539) was > 100 µM (inactive) and the GI50 (OVCAR-8) was > 100 µM (inactive). The GI50 (HCC 2998) was > 100 µM (inactive), the GI50 (OVCAR-3) was > 100 µM (inactive) and the GI50 (SK-MEL-5) was > 100 µM (inactive). For the same compound, the GI50 (SNB-75) was 28.1 µM (inactive), the GI50 (SN12C) was > 100 µM (inactive) and the GI50 (ACHN) was > 100 µM (inactive). For the same compound, the GI50 (SK-MEL-28) was > 100 µM (inactive), the GI50 (SW-620) was > 100 µM (inactive) and the GI50 (M14) was > 100 µM (inactive). For the same compound, the GI50 (Malme-3M) was > 100 µM (inactive), the GI50 (SR) was > 100 µM (inactive) and the GI50 (HOP-18) was > 100 µM (inactive). The GI50 (LXFL 529) was 66.2 µM (inactive), the GI50 (EKVX) was > 100 µM (inactive) and the GI50 (UACC-257) was > 100 µM (inactive). For the same compound, the GI50 (HOP-62) was > 100 µM (inactive), the GI50 (LOX IMVI) was > 100 µM (inactive) and the GI50 (HL-60) was > 100 µM (inactive). The GI50 (KM-20L2) was > 100 µM (inactive) and the GI50 (SNB-78) was > 100 µM (inactive).
